Values of other authors, collected in patent publication US20040147581A1, “Method of using a Cox-2 inhibitor and a 5-HT1A receptor modulator as a combination therapy” (Pharmacia Corporation, priority 2002, published 2004).

System: fibroblast growth factor-induced corneal angiogenesis
Conditions: rats

Cc1ccc(-c2cc(C(F)(F)F)nn2-c2ccc(S(N)(=O)=O)cc2)cc1 [Celecoxib, celecoxib]
inhibition of fibroblast growth factor-induced corneal angiogenesis: potent inhibition
